Reference: patent US20150274639A1, “METHODS OF USE FOR COMPOSITIONS COMPRISING A BIOCIDAL POLYAMINE” (Curza Global, LLC, priority 2013, published 2015)
Values after ≈ are worked out from the molar mass of the structure shown.

Experiments:
[1] = tested on: MRSA; assay: MIC in CAMHB, 96-well plate (10^5 to 10^2 CFU/mL in 24 hours); format: cell-based, methicillin-resistant Staphylococcus aureus; conditions: Staphylococcus aureus, MRSA, Table 5, class symbols
Experimental: (§1) To determine the MIC of polyamine compounds, the protocol described herein was used.
In brief, a 0.5 McFarland of each bacterial isolate was made. A 0.5 McFarland is a measure of turbidity in a liquid sample that contains approximately 1×10̂^8 CFU/mL. The 0.5 McFarland standard was diluted in cation adjusted Mueller Hinton Broth (CAMHB), and […], of broth were added to a well of a 96-well plate. In addition, 50 μL of CAMHB that contained a desired concentration of antimicrobial were also added to the well for a final volume of 100 and a final concentration of approximately 5×10^4 CFU/well (which equated to approximately 5×10^5 CFU/mL). Each well contained a desired amount of polyamine compound in order to experimentally determine the MIC. Each 96-well plate was incubated at 37° C. for 24 hours. The contents of each well were plated on tryptic soy agar (TSA). TSA plates were incubated for 37° C. for 24 hours after which the number of CFU were counted and used to calculate the CFU/mL that remained after exposure to varying concentrations of compound. This procedure was repeated n=8 times for each concentration of antimicrobial. […]

[2] = tested on: P. aeruginosa; assay: as above; format: cell-based; conditions: Pseudomonas aeruginosa, Table 5, class symbols
Experimental: as §1
In brief, a 0.5 McFarland of each bacterial isolate was made. A 0.5 McFarland is a measure of turbidity in a liquid sample that contains approximately 1×10̂^8 CFU/mL. The 0.5 McFarland standard was diluted in cation adjusted Mueller Hinton Broth (CAMHB), and […], of broth were added to a well of a 96-well plate. In addition, 50 μL of CAMHB that contained a desired concentration of antimicrobial were also added to the well for a final volume of 100 and a final concentration of approximately 5×10^4 CFU/well (which equated to approximately 5×10^5 CFU/mL). Each well contained a desired amount of polyamine compound in order to experimentally determine the MIC. Each 96-well plate was incubated at 37° C. for 24 hours. The contents of each well were plated on tryptic soy agar (TSA). TSA plates were incubated for 37° C. for 24 hours after which the number of CFU were counted and used to calculate the CFU/mL that remained after exposure to varying concentrations of compound. This procedure was repeated n=8 times for each concentration of antimicrobial.

[3] = tested on: biofilm formation; conditions: Kolodkin-Gal et al., Cell 149 (2012), cited from earlier work
[4] = tested on: MRSA; assay: MIC against MRSA as defined by CLSI (FIG. 25 series); format: cell-based, methicillin-resistant Staphylococcus aureus; conditions: Staphylococcus aureus
Experimental: To determine the MIC of the polyamine chains alone and the synthesized compounds against MRSA and P. aeruginosa ATCC 27853, a modified protocol from the Clinical and Laboratory Standards Institute (CLSI) guideline M26-A was used. […] All data was collected using cation adjusted MHB for standardization.
As mentioned, MRSA and P. aeruginosa ATCC 27853 were grown on Columbia blood agar plates prior to experimentation. From the blood agar plates, a 0.5 McFarland standard was made of each isolate. This equated to approximately 5×10^7 cells/mL for the MRSA isolate and approximately 3×10^7 cells/mL for the P. aeruginosa ATCC 27853 isolate. Of the 0.5 McFarland stock solution, 50 μL were added to MHB. […] All tests were performed such that a final volume of 5 mL of MHB were obtained. This provided a final bacterial concentration of approximately 5×10^5 cells/mL.
Each sample was incubated in glass test tubes at 37° C. for 24 hours, then plated in duplicate on tryptic soy agar (TSA) using a 10-fold dilution series. TSA plates were further incubated 24 hours at 37° C. The number of colony forming units (CFU) that grew were counted in order to calculate the number of bacteria that were present per mL in the original MHB solution.

[5] = tested on: biofilms of MRSA and P. aeruginosa; conditions: understanding of the inventors, no own test described; cited from earlier work

Row | SMILES | MIC [1] [µM] | MIC [2] [µM] | further results
1 | CC(C)Oc1ccc(-c2cc(CNCCCNCCCN)cc(CNCCCNCCCN)c2)cc1CNCCCNCCCN [CZ-66] | < 50 | < 50 | 
2 | NCCCCNCCCN [spermidine] |  |  | concentration at which active ([3]; only active at much higher concentrations): ~1 mM
3 | NCCCNCCCNCc1ccc(-c2cc(CNCCCNCCCN)cc(CNCCCNCCCN)c2)cc1 [CZ-65] | < 50 | < 50 | 
4 | NCCCNCCCNCCCNCc1ccccc1 [CZ-16] | > 100 |  | 
5 | NCCCNCc1cc(CNCCCN)cc(CNCCCN)c1 [CZ-32] | 50 to 100 (≈ 16.8 to 33.7 µg/mL) | 50 to 100 (≈ 16.8 to 33.7 µg/mL) | MIC [4]: 45 µg/mL (≈ 134 µM)
6 | NCCCNCCCNCc1cc(CNCCCNCCCN)cc(-c2ccc3c(c2)OCO3)c1 [CZ-61] | < 50 | < 50 | 
7 | NCCCNCCCNCc1cccc(-c2cc(CNCCCNCCCN)cc(CNCCCNCCCN)c2)c1 [CZ-62] | < 50 | < 50 | 
8 | O=CCCCC=O [glutaraldehyde] |  |  | biofilm dispersal effect (comparison antimicrobials) [5]: not seen
9 | CN(C)CCCNCCCNCc1cccc(CNCCCNCCCN(C)C)c1 [CZ-43] | > 100 | > 100 | 
10 | NCCCNCCCNCc1cc(CNCCCNCCCN)cc(-c2ccc(OC(F)(F)F)c(CNCCCNCCCN)c2)c1 [CZ-69] | < 50 | < 50 | 
11 | NCCCNCc1cccc(CNCCCN)c1 [CZ-12] |  | > 100 | 
12 | Cc1ccccc1-c1cc(CNCCCNCCCN)cc(CNCCCNCCCN)c1 [CZ-63] | < 50 | < 50 | 
13 | NCCCNCCCNCCCNCc1cc(CNCCCNCCCNCCCN)cc(-c2ccccc2)c1 [CZ-73] | < 50 | < 50 | 
14 | NCCCCCCNCc1cccc(CNCCCCCCN)c1 [CZ-26] | 50 to 100 (≈ 16.7 to 33.5 µg/mL) | > 100 | 
15 | NCCCCCCNCc1cc(CNCCCCCCN)cc(CNCCCCCCN)c1 [CZ-33] | 50 to 100 (≈ 23.1 to 46.3 µg/mL) | > 100 | 
16 | Cc1cc(C)c(CNCCCN)c(C)c1CNCCCN [CZ-19] | > 100 |  | 
17 | CC(C)(C)OC(=O)NCCCNCCCNCc1cc(CNCCCNCCCN)cc(CNCCCNCCCNC(=O)OC(C)(C)C)c1 [CZ-54] | < 50 | < 50 | 
18 | NCCCNCCCNCc1cc(CO)cc(CNCCCNCCCN)c1 [CZ-53] | < 50 | 50 to 100 (≈ 19.7 to 39.5 µg/mL) | 
19 | COc1ccc(-c2cc(CNCCCNCCCN)cc(CNCCCNCCCN)c2)cn1 [CZ-72] | < 50 | < 50 | 
20 | NCCCNCCCNCc1cc(CNCCCNCCCN)cc(-c2ccncc2)c1 [CZ-71] | < 50 | > 100 | 
21 | NCCCNC(=O)c1cccc(C(=O)NCCCN)c1 [CZ-40] |  | > 100 | 
22 | NCCCCNCc1ccccc1 [CZ-3] | > 100 |  | 
23 | NCCCNCCCNCCCNCc1cccc(CNCCCNCCCNCCCN)c1 [CZ-57] | < 50 | > 100 | 
24 | N=C(NCCCCCCNC(=N)NC(=N)Nc1ccc(Cl)cc1)NC(=N)Nc1ccc(Cl)cc1.O=C(O)[C@H](O)[C@@H](O)[C@H](O)[C@H](O)CO.O=C(O)[C@H](O)[C@@H](O)[C@H](O)[C@H](O)CO [chlorhexidine gluconate] |  |  | biofilm dispersal effect (comparison antimicrobials) [5]: not seen
25 | NCCCNCCCN [norspermidine, N-(3-aminopropyl)propane-1,3-diamine] |  |  | concentration at which biofilm formation is inhibited [3]: 25 µM
26 | CN(C)CCCNCCCNCc1ccccc1 [CZ-6] | > 100 |  | 
27 | NCCCNCCCNCc1cccc(CO)c1 [CZ-22] | 50 to 100 (≈ 12.6 to 25.1 µg/mL) |  | 
